# Measured values taken from patent publication US10087165B2, “Fluoroquinolones and use thereof to treat bacterial infections” (UNIVERSITÉ PIERRE ET MARIE CURIE—PARIS 6 (UPMC), priority 2014, dated 2018).
# Read-outs that look alike come from different tables or passages of the source.
# Key:
# [1] = test system: M. tuberculosis H37Rv strain; assay: Minimal effective dosage in the murine TB model; assay type: in vivo, Balb/C/J female mice; parameters: Mice weight: unit not given here; conditions: for Survival: No. death: 10 mice
# Procedure: Four-week-old Balb/C/J female mice were infected intravenously with 10^6 CFU of M. tuberculosis H37Rv strain. On the day following the infection (D1), 10 mice were sacrificed to determine the exact baseline values of spleen weight and CFU counts in the lungs. The remaining mice were allocated to the following treatment groups: an untreated negative control group for survival monitoring, a positive control group treated for 1 month with isoniazid (INH) 25 mg/kg/d, […] test groups were treated with Quin18 and Quin19 at increasing dosages (25 mg/kg/d; 50 mg/kg/d; 100 mg/kg/d; 150 mg/kg/d) given by oral gavage, and two additional test groups were treated intravenously with Quin18 25 mg/kg/d and 100 mg/kg/d. All the groups contained 10 mice and were treated from D1 to D28, 5 days a week. The parameters used for assessing the severity of infection and the effectiveness of treatments were survival rate, spleen weight, gross lung lesions and CFU counts in the lungs.
# The minimal effective dosage was defined as the minimal dosage able to prevent mortality of the mice, spleen enlargement and the occurrence of gross lung lesions. CFU counts were considered to be a more precise way of determining the dose-ranging efficacy of Quin18 and Quin19.
# Survival rates between groups were plotted on a Kaplan-Meier curve and compared using the log-rank test.
# M. tuberculosis H37Rv = assay: microbe, parasite or virus in culture; assay type: cell-based; conditions: for MIC: Mycobacterium tuberculosis
# [2] = Acute toxicity in healthy female CD-1 mice after a single oral treatment; assay type: in vivo; conditions: for Macroscopic autopsy: Observations: sacrifice at end of study
# Procedure: The aim of this study was to evaluate the acute toxicity of two new compounds (Quin 18 and Quin 19) in healthy female CD-1 after a single oral treatment at D0.
# Toxicity of treatment was evaluated by monitoring of animals (general signs of pharmacologic and toxicity effects, morbidity, mortality and evident signs of toxicity, as well as twice-weekly monitoring for clinical signs and body weight) until the end of the experiment (D14). At the end of the experiment, animals were sacrificed and macroscopic autopsy was performed.
# Mice of each group were administered by per os (PO) injection at 10 ml/kg according to the standard operating procedure No. TEC-078. The recommended volume for per os (PO) administration in mice is 10 ml/kg.
# Morbidity, mortality and evident signs of toxicity of mice were considered daily from D0 until the end of the experiment (D14 or D15).
# Monitoring of mice for detailed behavioral and clinical observations was performed twice a week from D0 until the end of the experiment (D14 or D15) according to the standard operating procedures No. TEC-192.
# Body weight of mice was monitored at D1, D2 and then twice a week until the end of the experiment (D14 or D15) according to the standard operating procedures No. TEC-108. Weight loss was assessed against the starting weight of each mouse at D0.
# During the course of the experiment, animals were sacrificed if any of the following occurs: • Signs of suffering (cachexia, weakening, difficulty to move or to eat), • Compound toxicity (hunching, convulsions), • 25% body weight loss on any day. Sacrifice of Animals
# At D14 or D15, animals were be sacrificed by CO2 inhalation and a macroscopic autopsy was performed.
# [3] = molecular target: M. tuberculosis DNA gyrase (Mycobacterium tuberculosis, UniProt P9WG45+P9WG47); assay: biochemical
# M. tuberculosis DNA gyrase, sequence (P9WG47 whole entry): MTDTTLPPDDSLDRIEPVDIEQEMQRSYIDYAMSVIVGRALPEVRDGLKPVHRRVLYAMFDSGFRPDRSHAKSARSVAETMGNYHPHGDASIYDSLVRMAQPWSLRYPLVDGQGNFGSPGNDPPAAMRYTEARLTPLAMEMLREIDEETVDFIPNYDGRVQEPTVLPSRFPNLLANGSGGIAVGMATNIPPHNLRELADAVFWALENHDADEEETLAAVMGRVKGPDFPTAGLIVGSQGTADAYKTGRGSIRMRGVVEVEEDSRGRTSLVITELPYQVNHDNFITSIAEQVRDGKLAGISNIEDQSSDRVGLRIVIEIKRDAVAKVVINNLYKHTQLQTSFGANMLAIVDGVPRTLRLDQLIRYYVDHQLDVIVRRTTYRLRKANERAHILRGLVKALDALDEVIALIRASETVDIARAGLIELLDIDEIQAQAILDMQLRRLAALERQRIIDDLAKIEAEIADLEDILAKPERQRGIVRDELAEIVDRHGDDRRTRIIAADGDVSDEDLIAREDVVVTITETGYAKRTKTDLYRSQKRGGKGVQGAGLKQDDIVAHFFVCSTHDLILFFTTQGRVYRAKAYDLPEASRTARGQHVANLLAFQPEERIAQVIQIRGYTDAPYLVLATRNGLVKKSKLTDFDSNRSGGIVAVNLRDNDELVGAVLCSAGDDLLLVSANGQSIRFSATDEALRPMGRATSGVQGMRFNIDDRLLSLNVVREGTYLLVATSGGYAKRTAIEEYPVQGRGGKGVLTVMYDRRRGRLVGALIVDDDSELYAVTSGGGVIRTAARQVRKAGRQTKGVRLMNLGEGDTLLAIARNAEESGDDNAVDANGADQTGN
# M. tuberculosis DNA gyrase, sequence (P9WG45 whole entry): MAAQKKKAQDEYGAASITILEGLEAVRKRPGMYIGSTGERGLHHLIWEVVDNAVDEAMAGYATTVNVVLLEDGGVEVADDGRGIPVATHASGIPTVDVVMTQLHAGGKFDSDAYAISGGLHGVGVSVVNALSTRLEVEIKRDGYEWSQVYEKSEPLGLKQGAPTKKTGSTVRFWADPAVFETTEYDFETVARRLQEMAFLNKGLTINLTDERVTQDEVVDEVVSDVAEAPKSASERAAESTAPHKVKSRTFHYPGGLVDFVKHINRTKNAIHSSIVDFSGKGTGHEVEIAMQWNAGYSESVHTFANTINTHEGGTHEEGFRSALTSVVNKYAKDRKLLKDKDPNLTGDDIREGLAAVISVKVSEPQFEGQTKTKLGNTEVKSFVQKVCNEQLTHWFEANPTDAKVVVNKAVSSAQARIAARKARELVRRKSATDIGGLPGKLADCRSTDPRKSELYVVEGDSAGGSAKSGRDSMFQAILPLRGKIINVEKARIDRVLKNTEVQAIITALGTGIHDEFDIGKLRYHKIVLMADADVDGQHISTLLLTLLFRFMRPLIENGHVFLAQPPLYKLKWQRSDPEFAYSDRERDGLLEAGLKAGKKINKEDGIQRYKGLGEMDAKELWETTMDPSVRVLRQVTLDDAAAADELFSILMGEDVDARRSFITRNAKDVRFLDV
compound,measurement,setting,value
"CCCCCCCCN1CCN(c2c(F)cc3c(=O)c(C(=O)O)cn(C4CC4)c3c2OC)CC1 [Quin 18, 1-cyclopropyl-6-fluoro-8-methoxy-7-(4-octylpiperazin-1-yl)-4-oxo-1,4-dihydroquinoline-3-carboxylic acid]",Mice weight,"[1]; 25 mg/kg/j, Gavage",19.4 ± 0.9
same,Spleen weight,"[1]; 25 mg/kg/j, Gavage",258.6 ± 155 mg
same,Survival: No. death,"[1]; 25 mg/kg/j, Gavage, D1 to D28, 5 days a week",0
same,Mice weight,"[1]; 25 mg/kg/j, Intravenously",20 ± 1
same,Spleen weight,"[1]; 25 mg/kg/j, Intravenously",391 ± 89.7 mg
same,Survival: No. death,"[1]; 25 mg/kg/j, Intravenously",0
same,Mice weight,"[1]; 50 mg/kg/j, Gavage",20 ± 1.6
same,Spleen weight,"[1]; 50 mg/kg/j, Gavage",231 ± 63.3 mg
same,Survival: No. death,"[1]; 50 mg/kg/j, Gavage",0
same,Mice weight,"[1]; 100 mg/kg/j, Gavage",19.4 ± 1.5
same,Spleen weight,"[1]; 100 mg/kg/j, Gavage",210 ± 104.1 mg
same,Survival: No. death,"[1]; 100 mg/kg/j, Gavage",0
same,Mice weight,"[1]; 100 mg/kg/j, Intravenously",20 ± 1.1
same,Spleen weight,"[1]; 100 mg/kg/j, Intravenously",400 ± 7.7 mg
same,Survival: No. death,"[1]; 100 mg/kg/j, Intravenously",1
same,Mice weight,"[1]; 150 mg/kg/j, Gavage",20.3 ± 0.8
same,Spleen weight,"[1]; 150 mg/kg/j, Gavage",239.8 ± 129.3 mg
same,Survival: No. death,"[1]; 150 mg/kg/j, Gavage",0
same,Efficacy in a mouse model of tuberculosis (in words),[1]; given orally,outstanding efficacy
same,Spleen weights compared with untreated group (in words),[1]; treated intravenously,spleen weights similar than the untreated group
same,Survival compared with untreated group (in words),"[1]; whatever the dosage (25, 50, 100 and 150 mg/kg/d) and the administration route",statistically superior to untreated group
same,antibacterial activity against wild-type M. tuberculosis strain (in words),M. tuberculosis H37Rv; H37Rv,high antibacterial activity
same,MIC,"M. tuberculosis H37Rv; H37RV, Table 3, read-out: MIC M. tuberculosis H37Rv",0.12 µM
same,MIC,"M. tuberculosis H37Rv; H37Rv, Table 2, read-out: MIC (M. tuberculosis) WT",≤ 0.12 µM
same,Loss of body weight (in words),[2]; Group A1: 100 mg/kg PO Q1Dx1,did not exhibited any loss of body weight
same,Tolerance (in words),"[2]; Group A1: 100 mg/kg PO Q1Dx1, polysorbate 80 0.4%, with sonication",well tolerated
same,Mean body weight (MBW),"[2]; Group A1: 100 mg/kg PO Q1Dx1, with sonication, D1",31.33 ± 0.8 g
same,Mean body weight (MBW),"[2]; Group A1: 100 mg/kg PO Q1Dx1, with sonication, D2",31.2 ± 0.7 g
same,Mean body weight (MBW),"[2]; Group A1: 100 mg/kg PO Q1Dx1, with sonication, D3",30.3 ± 0.53 g
same,Mean body weight (MBW),"[2]; Group A1: 100 mg/kg PO Q1Dx1, with sonication, D4",30.47 ± 0.78 g
same,Mean body weight (MBW),"[2]; Group A1: 100 mg/kg PO Q1Dx1, with sonication, D7",31.63 ± 0.49 g
same,Mean body weight (MBW),"[2]; Group A1: 100 mg/kg PO Q1Dx1, with sonication, D11",32.3 ± 1.37 g
same,Mean body weight (MBW),"[2]; Group A1: 100 mg/kg PO Q1Dx1, with sonication, D14",31.77 ± 0.76 g
same,Macroscopic autopsy: Observations,[2]; Group A1: 100 mg/kg PO Q1Dx1,NTR
same,Mean body weight (MBW),"[2]; Group A1: polysorbate 80 0.4%, 10 mg/ml with sonication, 100 mg/kg PO Q1Dx1, D0, 100 mg/kg",31.5 ± 1.48 g
same,Loss of body weight (in words),[2]; Group A2: 200 mg/kg PO Q1Dx1,did not exhibited any loss of body weight
same,Tolerance (in words),"[2]; Group A2: 200 mg/kg PO Q1Dx1, polysorbate 80 0.4%, with sonication",well tolerated
same,Mean body weight (MBW),"[2]; Group A2: 200 mg/kg PO Q1Dx1, with sonication, D1",31.13 ± 1.01 g
same,Mean body weight (MBW),"[2]; Group A2: 200 mg/kg PO Q1Dx1, with sonication, D2",30.27 ± 0.74 g
same,Mean body weight (MBW),"[2]; Group A2: 200 mg/kg PO Q1Dx1, with sonication, D3",30.7 ± 0.44 g
same,Mean body weight (MBW),"[2]; Group A2: 200 mg/kg PO Q1Dx1, with sonication, D7",31.67 ± 0.49 g
same,Mean body weight (MBW),"[2]; Group A2: 200 mg/kg PO Q1Dx1, with sonication, D10",31.73 ± 0.95 g
same,Mean body weight (MBW),"[2]; Group A2: 200 mg/kg PO Q1Dx1, with sonication, D14",32.6 ± 1.35 g
same,Macroscopic autopsy: Observations,[2]; Group A2: 200 mg/kg PO Q1Dx1,NTR
same,Mean body weight (MBW),"[2]; Group A2: polysorbate 80 0.4%, 20 mg/ml with sonication, 200 mg/kg PO Q1Dx1, D0, 200 mg/kg",30.2 ± 1.15 g
same,Loss of body weight (in words),[2]; Group A3: 100 mg/kg PO Q1Dx1,did not exhibited any loss of body weight
same,Tolerance (in words),"[2]; Group A3: 100 mg/kg PO Q1Dx1, polysorbate 80 0.4%",well tolerated
same,Mean body weight (MBW),"[2]; Group A3: 100 mg/kg PO Q1Dx1, without sonication, D1",29.8 ± 1.05 g
same,Mean body weight (MBW),"[2]; Group A3: 100 mg/kg PO Q1Dx1, without sonication, D2",30.4 ± 1.25 g
same,Mean body weight (MBW),"[2]; Group A3: 100 mg/kg PO Q1Dx1, without sonication, D4",30 ± 1.01 g
same,Mean body weight (MBW),"[2]; Group A3: 100 mg/kg PO Q1Dx1, without sonication, D7",31.33 ± 0.74 g
same,Mean body weight (MBW),"[2]; Group A3: 100 mg/kg PO Q1Dx1, without sonication, D11",32.3 ± 2.02 g
same,Mean body weight (MBW),"[2]; Group A3: 100 mg/kg PO Q1Dx1, without sonication, D15",32.17 ± 1.94 g
same,Macroscopic autopsy: Observations,[2]; Group A3: 100 mg/kg PO Q1Dx1,NTR
same,Mean body weight (MBW),"[2]; Group A3: polysorbate 80 0.4%, 10 mg/ml without sonication, 100 mg/kg PO Q1Dx1, D0, 100 mg/kg",29.9 ± 1.25 g
same,Loss of body weight (in words),[2]; Group A4: 200 mg/kg PO,did not exhibited any loss of body weight
same,Mean body weight (MBW),"[2]; Group A4: 200 mg/kg PO 2Q1Dx1, without sonication, D1",29.73 ± 1.22 g
same,Mean body weight (MBW),"[2]; Group A4: 200 mg/kg PO 2Q1Dx1, without sonication, D2",30.2 ± 1.31 g
same,Mean body weight (MBW),"[2]; Group A4: 200 mg/kg PO 2Q1Dx1, without sonication, D5",30 ± 1.45 g
same,Mean body weight (MBW),"[2]; Group A4: 200 mg/kg PO 2Q1Dx1, without sonication, D9",30.93 ± 3.04 g
same,Mean body weight (MBW),"[2]; Group A4: 200 mg/kg PO 2Q1Dx1, without sonication, D13",31.73 ± 2.64 g
same,Mean body weight (MBW),"[2]; Group A4: 200 mg/kg PO 2Q1Dx1, without sonication, D14",31.33 ± 1.63 g
same,Macroscopic autopsy: Observations,[2]; Group A4: 200 mg/kg PO 2Q1Dx1,NTR
same,Tolerance (in words),"[2]; Group A4: 200 mg/kg PO, polysorbate 80 0.4%",well tolerated
same,Mean body weight (MBW),"[2]; Group A4: polysorbate 80 0.4%, 10 mg/ml without sonication, 200 mg/kg PO 2Q1Dx1 (2 hours between the 2 injections), D0, 200 mg/kg",29.5 ± 0.89 g
same,"Autopsy, macroscopic observations (in words)",[2]; all treated groups,No particular sign was observed
same,Dose up to which well tolerated (maximal solubility),"[2]; in polysorbate 80 0.4%, PO, female mice",up to 200 mg/kg
same,Signs of toxicity at the dose levels tested (in words),[2]; mice,no signs of toxicity
same,IC50,[3],195 µM
